Measured values taken from paper PMC8151276, “An Integrated Approach toward NanoBRET Tracers for Analysis of GPCR Ligand Engagement” (Molecules, 2021).

Target: T1, AGTR2 (Homo sapiens, UniProt P50052)
T1 construct: purchased Promega (in-house HiBiT-GPCR construct library, NanoBRET)
T1 sequence (P50052 1-363): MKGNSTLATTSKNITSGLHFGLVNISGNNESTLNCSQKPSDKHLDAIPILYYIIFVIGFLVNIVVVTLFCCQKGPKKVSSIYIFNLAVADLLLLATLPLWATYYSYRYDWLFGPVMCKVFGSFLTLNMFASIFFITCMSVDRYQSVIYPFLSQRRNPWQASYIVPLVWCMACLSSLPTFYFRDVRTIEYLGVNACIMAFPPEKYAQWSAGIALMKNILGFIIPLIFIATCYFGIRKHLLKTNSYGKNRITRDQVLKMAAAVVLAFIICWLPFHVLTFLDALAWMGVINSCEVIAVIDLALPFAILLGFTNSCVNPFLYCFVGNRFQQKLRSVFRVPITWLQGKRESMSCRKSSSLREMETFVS
Experiment: NanoBRET screen HiBiT-AGTR2 in HEK293
Type: binding
Procedure: Each tracer candidate was screened across the entire library of HiBiT-GPCR constructs using NanoBRET as the detection modality. As depicted in Figure 4A, the specificity of interactions was evaluated through decrease in BRET due to competitive displacement of a bound tracer by excess parental compound. Each tracer was analyzed for binding to each HiBiT-GPCR fusion in the absence and in the presence of competing parental compound. Briefly, HEK293 cells were transfected with HiBiT-GPCR constructs diluted into promoterless DNA to reduce expression and maximize translocation to the cell surface. Each tracer candidate was then screened at concentrations of 1 μM and 0.1 μM across cells expressing these fusions. Cells were treated for 1.5 h with tracer either alone or in the presence of 20 μM competing parental compound (i.e., control). BRET was measured upon addition of purified LgBiT and subsequent complementation with HiBiT genetically fused to a GPCR. The specificity of interactions was assessed through a decrease in BRET signal due to competitive displacement of the bound tracer. To further gauge the robustness of these interactions, the fold response over the control (i.e., BRETtracer/BRETcontrol) was calculated. We chose a 1.5-fold response, which translates to ≥7-fold signal over noise as the minimal threshold required to score an interaction as positive. […]. Below we highlight the screening results obtained for our exemplary fluorescent tracers based on Clozapine, Amitriptyline and AZD1283.
HiBiT-GPCR DNA constructs were diluted in 10 mM Tris pH 8 to a final concentration of 0.01 μg/μL, arrayed in 96-well plates and stored at −20 °C. For transfection, HEK293 cells were suspended in Opti-MEM (without phenol red) supplemented with 2% fetal bovine serum (Seradigm) and 100 units/mL penicillin–streptomycin (Gibco) at a final concentration of 220,000 cells/mL and dispensed into white 96-well plates at 90 μL/well. Subsequent transfections and screens were carried using an Agilent Bravo Automated Liquid Handling Platform. First, the 96-well HiBiT DNA arrays were diluted 25-fold in Opti-MEM (without serum or phenol red) to a final concentration of 0.0004 μg/μL and 20 μL of the diluted DNAs were transferred into new 96-well plates. Next, promoterless carrier DNA (1 μg/μL) was diluted 25-fold (0.04 μg/μL) and then dispensed into the diluted arrays at 20 μL/well. Following brief mixing, Viafect transfection reagent (Promega) diluted 16-fold into Opti-MEM was dispensed into the plates at 40 μL/well. After mixing by pipetting, plates were incubated for 10 min on the pipetting station deck. The DNA-transfection reagent complexes were then added to plates containing cells. To facilitate the screen, 10 μL of DNA-transfection reagent complexes were added in duplicates to the top 4 and bottom 4 rows, resulting in two identical 48-well arrays per plate. Plates with transfected cells were incubated for 18–20 h at 37 °C/5% CO2. A screen of each tracer across the entire library using two different concentrations requires duplicate plates of transfected cells. Depending on the number of tracers being screened, transfections can be scaled up using the same ratios. The next day, for each tracer, four 20× screening solutions in tracer dilution buffer (Promega) were prepared: two duplicates at final concentration of 20 μM and two duplicates at a final concentration of 2 μM. A competing unmodified compound was added to one of each duplicate at a final concentration of 400 μM. The four resulting solutions were diluted 4-fold in Opti-MEM without serum or phenol red to generate 5× solutions (5 µM and 0.5 µM tracer +/− 100 μM competing compound). To screen the library, a BioTek MultiFlo FX liquid dispenser was used to dispense 22.5 µL of tracer solution to the top 4 rows and 22.5 µL tracer + competing compound solution to the 4 bottom rows. Plates were briefly mixed on an orbital shaker and incubated for 1.5 h at room temperature. […]

| SMILES | NanoBRET Fold Response (AGTR2, tracer 0.1μM) | NanoBRET Fold Response (AGTR2, tracer 1μM) | also measured |
| --- | --- | --- | --- |
| CCOC(=O)c1cc(C#N)c(N2CCC(C(=O)NS(=O)(=O)Cc3ccccc3/C=C/C(=O)NCCNC(=O)CCc3ccc4n3[B-](F)(F)[N+]3=C(c5ccc[nH]5)C=CC3=C4)CC2)nc1C [AZD1283-1-NB590] | – | – | NanoBRET Fold Response (AGTR2, 0.1μM): 1.13; NanoBRET Fold Response (AGTR2, 1μM): 1.17 |
| N#CN=C(NCCCOc1cccc(CN2CCCCC2)c1)NCCNC(=O)CCOCCOCCOCCOCCNC(=O)CCc1ccc2n1[B-](F)(F)[N+]1=C(c3ccc[nH]3)C=CC1=C2 [Aminopotentidine-2-NB590] | 0.98 | 1.04 | – |
| CN(C)CCC=C1c2ccccc2CCc2ccc(C(=O)NCCNC(=O)CCOCCOCCOCCOCCNC(=O)CCc3ccc4n3[B-](F)(F)[N+]3=C(c5ccc[nH]5)C=CC3=C4)cc21 [Amitriptyline-a-2-NB590] | – | – | NanoBRET Fold Response (tracer at 0.1μM): 1.01; NanoBRET Fold Response (tracer at 1μM): 0.98 |
| CN(C)CCC=C1c2ccccc2CCc2ccc(C(=O)NCCNC(=O)CCOCCOCCOCCOCCNC(=O)CCc3ccc4n3[B-](F)(F)[N+]3=C(c5ccc[nH]5)C=CC3=C4)cc21 [Amitriptyline-b-2-NB590] | – | – | NanoBRET Fold Response (tracer at 0.1μM): 0.84; NanoBRET Fold Response (tracer at 1μM, listed as amitriptyline-b-2-NB590): 0.87 |
| CN(CCC=C1c2ccccc2CCc2ccccc21)C(=O)CCOCCOCCOCCOCCNC(=O)CCc1ccc2n1[B-](F)(F)[N+]1=C(c3ccc[nH]3)C=CC1=C2 [Amitriptyline-e-2-NB590] | – | – | NanoBRET Fold Response (tracer at 1μM): 0.97 |
| COc1ccc2c(n1)c(CCNC(C)=O)cn2CCNC(=O)CCc1ccc2n1[B-](F)(F)[N+]1=C(c3ccc[nH]3)C=CC1=C2 [Azamelatonin-1-NB590] | – | – | NanoBRET Fold Response (0.1μM tracer): 1.23; NanoBRET Fold Response (1μM tracer): 0.87 |
| COc1ccc2[nH]c(-c3ccc(CNC(=O)CCOCCOCCOCCOCCNC(=O)CCc4ccc5n4[B-](F)(F)[N+]4=C(c6ccc[nH]6)C=CC4=C5)cc3)c(CCNC(C)=O)c2n1 [AzomelatoninICO9-2-NB590] | – | – | NanoBRET Fold Response (0.1μM tracer): 0.88; NanoBRET Fold Response (1μM tracer): 0.95 |
| O=C(CCOCCOCCOCCOCCNC(=O)CCc1ccc2n1[B-](F)(F)[N+]1=C(c3ccc[nH]3)C=CC1=C2)NCCCN1CCN(C2=Nc3cc(Cl)ccc3Nc3ccccc32)CC1 [Clozapine-a-2-NB590] | – | – | NanoBRET Fold Response (AGTR2, 0.1μM tracer): 1.02; NanoBRET Fold Response (AGTR2, 1μM tracer): 1.03 |
| CN1CCN(C2=Nc3cc(Cl)ccc3Nc3ccc(CNC(=O)CCOCCOCCOCCOCCNC(=O)CCc4ccc5n4[B-](F)(F)[N+]4=C(c6ccc[nH]6)C=CC4=C5)cc32)CC1 [Clozapine-b-2-NB590] | – | – | NanoBRET Fold Response (AGTR2, 0.1μM tracer): 1.03; NanoBRET Fold Response (AGTR2, 1μM tracer): 0.95 |
| CN1CCN(C2=Nc3cc(Cl)ccc3N(CC(=O)NCCOCCOCCOCCOCCNC(=O)CCc3ccc4n3[B-](F)(F)[N+]3=C(c5ccc[nH]5)C=CC3=C4)c3ccccc32)CC1 [Clozapine-c-2-NB590] | – | – | NanoBRET Fold Response (AGTR2, 0.1μM tracer): 0.98; NanoBRET Fold Response (AGTR2, 1μM tracer): 0.98 |
| O=C(CCOCCOCCOCCOCCNC(=O)CCc1ccc2n1[B-](F)(F)[N+]1=C(c3ccc[nH]3)C=CC1=C2)NCCCN1CCN(C2=Nc3ccccc3Oc3ccc(Cl)cc32)CC1 [Loxapine-a-2-NB590] | 1.00 | 1.01 | – |
| COc1ccccc1N1CCN(CCCCN2C(=O)c3ccc(CNC(=O)CCOCCOCCOCCOCCNC(=O)CCc4ccc5n4[B-](F)(F)[N+]4=C(c6ccc[nH]6)C=CC4=C5)cc3C2=O)CC1 [NAN-190-2-NB590] | 1.02 | 0.98 | – |
| COc1ccccc1N1CCN(CCCCN2C(=O)c3ccc(CNC(=O)CCOCCNC(=O)c4ccc(CNC(=O)CCc5ccc6n5[B-](F)(F)[N+]5=C(c7ccc[nH]7)C=CC5=C6)cc4)cc3C2=O)CC1 [NAN-190-3-NB590] | 0.99 | 0.90 | – |
| O=C(CCc1ccc2n1[B-](F)(F)[N+]1=C(c3ccc[nH]3)C=CC1=C2)NCc1ccc(C(=O)NCCOCCC(=O)N[C@@H]2CC[C@@]3(O)[C@H]4Cc5ccc(O)c6c5[C@@]3(CCN4CC3CC3)[C@H]2O6)cc1 [Naltrexone-3-NB590] | 1.23 | 0.67 | – |
| Cc1cc2c(s1)Nc1ccccc1N=C2N1CCN(CCCNC(=O)CCOCCOCCOCCOCCNC(=O)CCc2ccc3n2[B-](F)(F)[N+]2=C(c4ccc[nH]4)C=CC2=C3)CC1 [Olanzapine-a-2-NB590] | 1.12 | 0.87 | – |
| O=C(CCc1ccc2n1[B-](F)(F)[N+]1=C(c3ccc[nH]3)C=CC1=C2)NCc1ccc(C(=O)NCCOCCOCCNCC(O)COc2cccc3ccccc23)cc1 (centres unmarked) [Propranolol-3-NB590] | – | – | NanoBRET Fold Response (AGTR2, 0.1μM): 0.95; NanoBRET Fold Response (AGTR2, 1μM): 0.99 |
| O=C(CCc1ccc2n1[B-](F)(F)[N+]1=C(c3ccc[nH]3)C=CC1=C2)NCCOCCOCCNC(=O)OCCOCCN1CCN(C2=Nc3ccccc3Sc3ccccc32)CC1 [Quetiapine-a-2-NB590] | 1.08 | 1.05 | – |
| Cc1nc2n(c(=O)c1CCN1CCC(c3noc4cc(F)ccc34)CC1)CCCC2OC(=O)NCCOCCOCCOCCOCCNC(=O)CCc1ccc2n1[B-](F)(F)[N+]1=C(c3ccc[nH]3)C=CC1=C2 (centres unmarked) [Risperidone-2-NB590] | 1.10 | 0.94 | – |
| CC(C)N(CC[C@H](c1ccccc1)c1cc(CCNC(=O)CCOCCOCCOCCOCCNC(=O)CCc2ccc3n2[B-](F)(F)[N+]2=C(c4ccc[nH]4)C=CC2=C3)ccc1O)C(C)C [Tolterodine-2-NB590] | 1.10 | 1.07 | – |
| CC(C)N(CC[C@H](c1ccccc1)c1cc(CCNC(=O)c2ccc(CNC(=O)CCc3ccc4n3[B-](F)(F)[N+]3=C(c5ccc[nH]5)C=CC3=C4)cc2)ccc1O)C(C)C [Tolterodine-BZ-NB590] | 0.96 | 0.95 | – |
| CCCn1c(=O)c2[nH]c(-c3ccc(OCC(=O)NCCNC(=O)CCOCCNC(=O)c4ccc(CNC(=O)CCc5ccc6n5[B-](F)(F)[N+]5=C(c7ccc[nH]7)C=CC5=C6)cc4)cc3)nc2n(CCC)c1=O [XAC-3-NB590] | 1.24 | 1.09 | – |
